Assay results from patent US20110077237A1, “KINASE INHIBITORS” (VERTEX PHARMACEUTICALS INCORPORATED, priority 2007, published 2011).

Legend:
Type in all cases: biochemical
PKC theta [1] = biological target: T1, PKC theta (Homo sapiens, UniProt Q04759); assay: PKC Theta II 33P radiometric kinase assay; details: 0.5 nM PKC theta, 240 μM ATP, [γ-33P] ATP, 25° C., compound range 0-0.25 μM
Experimental: An assay buffer solution was prepared which consisted of 100 mM HEPES (pH 7.5), 10 mM MgCl2, 25 mM NaCl, 0.1 mM EDTA and 0.01% Brij. An enzyme buffer containing reagents to final assay concentrations of 0.002% Triton X-100, 200 μg/mL Phosphatidylserine, 20 μg/mL Diacylglycerol, 2 mM DTT, 150 μM substrate peptide ([…]) and 0.5 nM PKC theta kinase was prepared in assay buffer. To 22 μL of this enzyme buffer, in a 96 well plate, was added 2 μL of VRT stock solution in DMSO. The mixture was allowed to equilibrate for 10 mins at 25° C. […] ATP.
The reaction was stopped after 60 minutes by the addition of 100 μL 100 mM phosphoric acid. A phosphocellulose 96 well plate (Millipore, Cat no. MAPHNOB) was washed with […] 100 mM phosphoric acid prior to the addition of the reaction mixture (120 μL) and was left to soak for at least 30 minutes, prior to wash steps (4×200 μL 100 mM phosphoric acid). After drying, 100 μL Optiphase ‘SuperMix’ liquid scintillation cocktail (Perkin Elmer) was added to the well prior to scintillation counting (1450 Microbeta Liquid Scintillation Counter, Wallac).
For each Ki determination, 11 data points covering the VRT concentration range of 0-0.25 μM were obtained in duplicate (DMSO stocks were prepared from an initial 10 mM VRT stock with subsequent 1:2 serial dilutions). Ki values were calculated from initial rate data by non-linear regression using the Prism software package (Prism 4.0a, Graphpad Software, San Diego, Calif.).

PKC delta kinase = PKC delta kinase (Homo sapiens, UniProt Q05655); assay: PKC Delta coupled-enzyme kinase assay; details: 46 nM PKC delta, 150 μM ATP, 30° C.; read-out: Ki PKC delta
Method in brief: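 Assay buffer was 100 mM HEPES pH 7.5, 10 mM MgCl2, 25 mM NaCl, 0.1 mM EDTA, 0.01% Brij. Enzyme buffer was equilibrated with compound in DMSO for 10 min at 30 °C. Ki values were derived by non-linear regression of initial rate data.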

PKC alpha kinase = PKC alpha kinase (Homo sapiens, UniProt P17252); assay: PKC Alpha coupled-enzyme kinase assay; details: 4.5 nM PKC alpha, 130 μM ATP, 30° C.
Experimental: An assay buffer solution was prepared which consisted of 100 mM HEPES (pH 7.5), 10 mM MgCl2, 25 mM NaCl, 0.1 mM EDTA, 100 μM CaCl2 and 0.01% Brij. […] To 16 μL of this enzyme buffer, in a 384 well plate, was added 1 μL of VRT stock solution in DMSO. The mixture was allowed to equilibrate for 10 mins at 30° C. The enzyme reaction was initiated by the addition of 16 μL stock ATP solution prepared in assay buffer to a final assay concentration of 130 μM. Initial rate data was determined from the rate of change of absorbance at 340 nm (corresponding to stoichiometric consumption of NADH) using a Molecular Devices Spectramax plate reader (Sunnyvale, Calif.) over 15 mins at 30° C. For each Ki determination 12 data points covering the VRT concentration range of 0-20 μM were obtained in duplicate (DMSO stocks were prepared from an initial 10 mM VRT stock with subsequent 1:2 serial dilutions). Ki values were calculated from initial rate data by non-linear regression using the Prism software package (Prism 4.0a, Graphpad Software, San Diego, Calif.).

PKC theta [2] = biological target: T1, PKC theta; assay: PKC Theta I coupled-enzyme (NADH absorbance) kinase assay; details: 18 nM PKC theta, 240 μM ATP, 30° C., absorbance at 340 nm
Experimental: An assay buffer solution was prepared which consisted of 100 mM HEPES (pH 7.5), 10 mM MgCl2, 25 mM NaCl, 0.1 mM EDTA and 0.01% Brij. […] To 60 μL of this enzyme buffer, in a 384 well plate, was added 2 μL of VRT stock solution in DMSO. The mixture was allowed to equilibrate for 10 mins at 30° C. […] Ki values were calculated from initial rate data by non-linear regression using the Prism software package (Prism 4.0a, Graphpad Software, San Diego, Calif.).

T1 sequence (Q04759 whole entry): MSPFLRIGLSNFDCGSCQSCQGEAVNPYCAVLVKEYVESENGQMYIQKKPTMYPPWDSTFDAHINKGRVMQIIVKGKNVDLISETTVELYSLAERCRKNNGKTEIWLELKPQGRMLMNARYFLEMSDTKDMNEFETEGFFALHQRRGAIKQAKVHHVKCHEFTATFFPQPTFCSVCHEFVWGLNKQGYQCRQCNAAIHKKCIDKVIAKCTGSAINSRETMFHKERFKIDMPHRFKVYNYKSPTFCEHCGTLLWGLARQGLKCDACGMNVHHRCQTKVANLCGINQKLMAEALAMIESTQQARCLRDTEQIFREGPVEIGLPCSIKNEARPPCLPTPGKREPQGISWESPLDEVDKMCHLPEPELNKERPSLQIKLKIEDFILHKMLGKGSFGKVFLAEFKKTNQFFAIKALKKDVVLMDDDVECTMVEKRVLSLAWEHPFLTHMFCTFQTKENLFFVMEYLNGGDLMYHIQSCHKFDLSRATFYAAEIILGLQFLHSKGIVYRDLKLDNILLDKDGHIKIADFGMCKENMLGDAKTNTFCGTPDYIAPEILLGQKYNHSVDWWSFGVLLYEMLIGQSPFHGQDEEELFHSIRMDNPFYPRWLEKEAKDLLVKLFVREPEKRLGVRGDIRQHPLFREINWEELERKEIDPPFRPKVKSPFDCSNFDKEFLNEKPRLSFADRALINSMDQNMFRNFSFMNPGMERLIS
PKC delta kinase, sequence (Q05655 whole entry): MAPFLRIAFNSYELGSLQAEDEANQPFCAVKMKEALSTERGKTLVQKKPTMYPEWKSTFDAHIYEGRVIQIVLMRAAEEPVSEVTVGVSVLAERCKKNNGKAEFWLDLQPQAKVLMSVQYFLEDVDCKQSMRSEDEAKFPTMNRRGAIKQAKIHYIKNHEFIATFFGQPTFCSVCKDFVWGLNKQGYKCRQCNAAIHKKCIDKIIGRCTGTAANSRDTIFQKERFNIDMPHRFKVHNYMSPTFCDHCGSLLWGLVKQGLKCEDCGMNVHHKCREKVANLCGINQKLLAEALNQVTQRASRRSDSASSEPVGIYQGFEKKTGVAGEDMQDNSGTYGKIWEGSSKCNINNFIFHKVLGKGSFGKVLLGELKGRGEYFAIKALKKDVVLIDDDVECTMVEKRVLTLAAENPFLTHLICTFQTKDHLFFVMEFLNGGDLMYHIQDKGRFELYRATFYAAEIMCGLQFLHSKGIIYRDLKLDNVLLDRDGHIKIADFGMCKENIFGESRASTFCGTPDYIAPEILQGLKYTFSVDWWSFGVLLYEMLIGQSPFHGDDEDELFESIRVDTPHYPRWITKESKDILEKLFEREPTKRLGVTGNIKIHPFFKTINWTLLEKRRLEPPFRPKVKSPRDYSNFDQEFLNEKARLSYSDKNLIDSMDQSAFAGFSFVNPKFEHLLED

| Compound | Ki (PKC theta [1]) [nM] | Ki (PKC delta kinase) [nM] | Ki (PKC alpha kinase) [nM] | Ki (PKC theta [2]) [nM] |
| --- | --- | --- | --- | --- |
| CN1CCCN(c2cccc(C(=O)c3cc(Br)cnc3N)n2)CC1 [compound 67] | < 50 | 50 to 500 |  |  |
| Nc1ncc(-c2ccccc2)cc1C(=O)c1cccc(N2CCCNCC2)n1 [compound 45] | < 50 | 50 to 500 | < 50 |  |
| CNCCN(C)c1ccc(C(F)(F)F)c(C(=O)c2cccnc2N)n1 [compound 380] |  | 500 to 2800 | 500 to 2800 | 500 to 2800 |
| Nc1ncc(-c2c[nH]c3ccccc23)cc1C(=O)c1cncc(N2CCCNCC2)n1 [compound 213] | 50 to 500 |  |  |  |
| Nc1ncccc1C(=O)c1nc(N2CCNCC2)ccc1Cc1ccccc1 [compound 417] |  | 500 to 2800 | 500 to 2800 | 500 to 2800 |
| Nc1ncccc1C(=O)c1nc(NC2CCCCC2N)ccc1C(F)(F)F (centres unmarked) [compound 414] |  | 500 to 2800 | 500 to 2800 | 500 to 2800 |
| Nc1ncccc1C(=O)c1nc(NCCCO)ccc1C(F)(F)F [compound 419] |  | 500 to 2800 | 500 to 2800 | 500 to 2800 |
| NCCOc1ccc(C(F)(F)F)c(C(=O)c2cccnc2N)n1 [compound 378] |  | 500 to 2800 | 500 to 2800 | 500 to 2800 |
| CC#Cc1ccc(N2CCN[C@@H](CC(C)C)C2)nc1C(=O)c1cccnc1N [compound 402] | 50 to 500 |  | < 50 |  |
| NCCCCNc1ccc(C(F)(F)F)c(C(=O)c2cccnc2N)n1 [compound 374] |  | 500 to 2800 | 500 to 2800 | 500 to 2800 |
| CNCCNc1ccc(C(F)(F)F)c(C(=O)c2cccnc2N)n1 [compound 373] |  | 500 to 2800 | 500 to 2800 | 500 to 2800 |
| C=Cc1ccc(N2CCN[C@@H](CC(C)C)C2)nc1C(=O)c1cccnc1N [compound 346] | 50 to 500 |  |  |  |
| Nc1ncccc1C(=O)c1cccc(Br)n1 [compound 390] |  | 500 to 2800 | 500 to 2800 | 500 to 2800 |
| NCCCOc1ccc(C(F)(F)F)c(C(=O)c2cccnc2N)n1 [compound 405] |  | 500 to 2800 | 500 to 2800 | 500 to 2800 |
| Nc1ncccc1C(=O)c1nc(N2CCNCC2)ccc1C1CC1 [compound 354] |  | 500 to 2800 | > 2800 | 500 to 2800 |
| Nc1ncccc1C(=O)c1nc(N2CCC(N)C2)ccc1C(F)(F)F (centres unmarked) [compound 369] |  | 500 to 2800 | 500 to 2800 | 500 to 2800 |
| Nc1ncccc1C(=O)c1cccc(N2CCNC(c3cccc(Cl)c3)C2)n1 (centres unmarked) [compound 301] | 50 to 500 |  |  |  |
| CC1CNCCN1c1cccc(C(=O)c2cccnc2N)n1 (centres unmarked) [compound 191] | 50 to 500 |  |  |  |
| C#Cc1ccc(N2CCN[C@@H](CC(C)C)C2)nc1C(=O)c1cccnc1N [compound 357] | 50 to 500 |  |  |  |
| Nc1ncccc1C(=O)c1nc(NC2CCCC(N)C2)ccc1C(F)(F)F (centres unmarked) [compound 389] |  | 500 to 2800 | 500 to 2800 | 500 to 2800 |
| Cc1cc(C(=O)c2cccnc2N)nn1C1CCCNCC1 (centres unmarked) [compound 217] |  | 500 to 2800 | > 2800 | 500 to 2800 |
| Nc1ncccc1C(=O)c1cccc(N2CCNC(Cc3cnc[nH]3)C2)n1 (centres unmarked) [compound 304] |  | 500 to 2800 | > 2800 | 500 to 2800 |
| CC(C)C[C@H]1CN(c2ccc(-c3cnn(C)c3)c(C(=O)c3cccnc3N)n2)CCN1 [compound 420] |  | 500 to 2800 | 500 to 2800 | 500 to 2800 |
| Cc1cc(N)n(-c2ccc(C(F)(F)F)c(C(=O)c3cccnc3N)n2)n1 [compound 394] |  | 500 to 2800 | 500 to 2800 | 500 to 2800 |

| Compound | Ki (PKC theta [1]) [nM] | Ki (PKC delta kinase) [nM] | Ki (PKC alpha kinase) [nM] | Ki (PKC theta [2]) [nM] |
| --- | --- | --- | --- | --- |
| Nc1ncccc1C(=O)c1nc(NC2CCCNC2)ccc1C(F)(F)F (centres unmarked) [compound 381] |  | 500 to 2800 | 500 to 2800 | 500 to 2800 |
| CCCNc1ccc(C(F)(F)F)c(C(=O)c2cccnc2N)n1 [compound 398] |  | 500 to 2800 | 500 to 2800 | 500 to 2800 |
| Cn1cc(-c2cnc(N)c(C(=O)c3cccc(N4CCCNCC4)n3)c2)c2ccccc21 [compound 210] | 50 to 500 |  | < 50 |  |
| C/C=C/c1ccc(N2CCN[C@@H](CC(C)C)C2)nc1C(=O)c1cccnc1N [compound 361] | 50 to 500 |  |  |  |
| CC(C)[C@H](CN)Nc1ccc(C(F)(F)F)c(C(=O)c2cccnc2N)n1 [compound 370] |  | 500 to 2800 | 500 to 2800 | 500 to 2800 |
| Nc1ncc(Br)cc1C(=O)c1cccc(N2CCCN(C(=O)CC(F)(F)F)CC2)n1 [compound 75, 1-(4-(6-(2-amino-5-bromonicotinoyl)pyridin-2-yl)-1,4-diazepan-1-yl)-3,3,3-trifluoropropan-1-one] | < 50 | 50 to 500 |  |  |
| Nc1ncc(-c2c[nH]c3ccccc23)cc1C(=O)c1cccc(N2CCCNCC2)n1 [compound 179] | 50 to 500 |  | < 50 |  |
| Nc1ncccc1C(=O)c1ccn(C2CCCNCC2)n1 (centres unmarked) [compound 203] |  | 500 to 2800 | 500 to 2800 | 500 to 2800 |
| CC(C)C[C@H]1CN(c2ccc(C#CC3CC3)c(C(=O)c3cccnc3N)n2)CCN1 [compound 407] |  | 500 to 2800 | 500 to 2800 | 500 to 2800 |
| CC(C)(N)CNc1ccc(C(F)(F)F)c(C(=O)c2cccnc2N)n1 [compound 368] |  | 500 to 2800 | 500 to 2800 | 500 to 2800 |
| Nc1ncccc1C(=O)c1nc(N2CCNC(c3ccccc3)C2)ccc1C#CC1CC1 (centres unmarked) [compound 408] |  | 500 to 2800 | 500 to 2800 | 500 to 2800 |
| Nc1ncccc1C(=O)c1nc(NC2CCNC2)ccc1C(F)(F)F (centres unmarked) [compound 376] |  | 500 to 2800 | 500 to 2800 | 500 to 2800 |
| Cc1cccc(C)c1C1CN(c2cccc(C(=O)c3cccnc3N)n2)CCN1 (centres unmarked) [compound 337] |  | > 2800 | 500 to 2800 | 500 to 2800 |
| Nc1ncccc1C(=O)c1ccn(C2CCNCC2)n1 [compound 184] |  | 500 to 2800 | 500 to 2800 | 500 to 2800 |
| Nc1ncccc1C(=O)c1nc(NCC2CCCCN2)ccc1C(F)(F)F (centres unmarked) [compound 382] |  | 500 to 2800 | 500 to 2800 | 500 to 2800 |
| CC(C)C[C@H]1CN(c2cccc(C(=O)c3cccnc3N)n2)CCN1 [compound 193] | 50 to 500 |  |  |  |
| Nc1ncccc1C(=O)c1nc(N2CCNCC2)ccc1C#CC1CC1 [compound 409] |  | 500 to 2800 | 500 to 2800 | 500 to 2800 |
| C=Cc1cnc(N)c(C(=O)c2cccc(N3CCC(N)CC3)n2)c1 [compound 164] | 50 to 500 |  |  |  |
| Cc1cc(Nc2ccc(C(F)(F)F)c(C(=O)c3cccnc3N)n2)[nH]n1 [compound 393] |  | 500 to 2800 | 500 to 2800 | 500 to 2800 |
| C=Cc1cnc(N)c(C(=O)c2cccc(N3CCCNCC3)n2)c1 [compound 66] | 50 to 500 | 50 to 500 | < 50 |  |
| C=Cc1cnc(N)c(C(=O)c2cccc(N3CCCN(C(=O)CC(F)(F)F)CC3)n2)c1 [compound 107, 1-(4-(6-(2-amino-5-vinylnicotinoyl)pyridin-2-yl)-1,4-diazepan-1-yl)-3,3,3-trifluoropropan-1-one] | < 50 | 50 to 500 |  |  |
| Nc1ncccc1C(=O)c1nc(NC2CNC2)ccc1C(F)(F)F [compound 375] |  | 500 to 2800 | 500 to 2800 | 500 to 2800 |
| CC(C)C(CO)Nc1ccc(C(F)(F)F)c(C(=O)c2cccnc2N)n1 (centres unmarked) [compound 399] |  | 500 to 2800 | 500 to 2800 | 500 to 2800 |
